Reference: paper PMC5895059, “Scaffold hopping from (5-hydroxymethyl) isophthalates to multisubstituted pyrimidines diminishes binding affinity to the C1 domain of protein kinase C” (PLoS ONE, 2018)
“And” between values parts separate entries of the source, which are not always exact repeats. Equal values may be shown once.

Columns and labels:
PKCα [1] = target: T1, PKCα (Homo sapiens, UniProt P17252); conditions: read-out: Ki PKCα; cited from earlier work
PKCα [2] = target: T1, PKCα; assay: [3H]PDBu displacement, 96-well plate filtration binding assay; conditions: for Displacement assay raw data (CCPM): single replicate wells; for Residual [^3H]PDBu binding to PKCα (% of control): 20 μM compound concentration, mean + SEM, n = 2–8; for Displacement of [^3H]PDBu from PKCα (in words): concentration range of 0.2–30 μM

Row | Residual [^3H]PDBu binding to PKCα (% of control) (PKCα [2]) | Displacement of [^3H]PDBu from PKCα (in words) (PKCα [2]) | Structure (SMILES) | Ki (PKCα [1]) | Displacement assay raw data (CCPM) (PKCα [2]; 0,2 µM test substance) | Displacement assay raw data (CCPM) (PKCα [2]; 1 µM test substance) | Displacement assay raw data (CCPM) (PKCα [2]; 4 µM test substance) | Displacement assay raw data (CCPM) (PKCα [2]; 10 µM test substance) | Displacement assay raw data (CCPM) (PKCα [2]; 20 µM test substance) | Displacement assay raw data (CCPM) (PKCα [2]; 30 µM test substance)
1 | 93.5 ± 6.5 % of control | – | CCCCCCCCOC(=O)c1nc(CO)nc(OCCCCCCCC)c1C [Compound 2c, Octyl 2-(hydroxymethyl)-5-methyl-6-(octyloxy)pyrimidine-4-carboxylate] | – | 12223 CCPM and 10832 CCPM and 10701 CCPM and 18273 CCPM and 16005 CCPM and 17696 CCPM | 12118 CCPM and 12391 CCPM and 11284 CCPM and 18079 CCPM and 16200 CCPM and 17048 CCPM | 10666 CCPM and 10448 CCPM and 9501 CCPM and 18957 CCPM and 15769 CCPM and 16408 CCPM | 10483 CCPM and 10217 CCPM and 10554 CCPM and 15009 CCPM and 15224 CCPM and 15278 CCPM | 10634 CCPM and 9873 CCPM and 9750 CCPM and 16572 CCPM and 15241 CCPM and 16254 CCPM | 11684 CCPM and 11210 CCPM and 10063 CCPM and 15855 CCPM and 15398 CCPM and 15526 CCPM
2 | 91.4 ± 2.3 % of control | – | CCCCC(CC)OC(=O)c1nc(CO)nc(OC(CC)CCCC)c1C (centres unmarked) [Compound 2e, Heptan-3-yl 6-(heptan-3-yloxy)-2-(hydroxymethyl)-5-methylpyrimidine-4-carboxylate] | – | 13386 CCPM and 12773 CCPM and 11586 CCPM and 9937 CCPM and 11273 CCPM and 11368 CCPM | 12486 CCPM and 13520 CCPM and 13561 CCPM and 10438 CCPM and 10771 CCPM and 10331 CCPM | 13244 CCPM and 12192 CCPM and 13129 CCPM and 11362 CCPM and 12373 CCPM and 12221 CCPM | 12416 CCPM and 12269 CCPM and 12041 CCPM and 10898 CCPM and 11193 CCPM and 10978 CCPM | 11475 CCPM and 10474 CCPM and 10581 CCPM and 9805 CCPM and 9920 CCPM and 10092 CCPM | 11584 CCPM and 10772 CCPM and 11119 CCPM and 8897 CCPM and 9568 CCPM and 9434 CCPM
3 | 87.2 ± 3.1 % of control | strongest concentration dependence | CCCCC(CC)Oc1nc(CO)nc(C(=O)OCc2cccc(C(F)(F)F)c2)c1C (centres unmarked) [Compound 2l, 3-(trifluoromethyl)benzyl 6-(heptan-3-yloxy)-2-(hydroxymethyl)-5-methylpyrimidine-4-carboxylate] | – | 11787 CCPM and 12303 CCPM and 12556 CCPM and 11461 CCPM and 11853 CCPM and 10747 CCPM | 11810 CCPM and 12833 CCPM and 12739 CCPM and 9497 CCPM and 9690 CCPM and 11213 CCPM | 12017 CCPM and 12127 CCPM and 12580 CCPM and 10346 CCPM and 11241 CCPM and 10654 CCPM | 10371 CCPM and 11662 CCPM and 12071 CCPM and 9995 CCPM and 8831 CCPM and 10464 CCPM | 9853 CCPM and 10455 CCPM and 11136 CCPM and 9012 CCPM and 9579 CCPM and 9472 CCPM | 9538 CCPM and 8697 CCPM and 9196 CCPM and 7998 CCPM and 9967 CCPM and 8566 CCPM
4 | 87.2 ± 6.0 % of control | – | CCCCCCCOc1nc(CO)nc(C(=O)OCc2cccc(C(F)(F)F)c2)c1C [Compound 2j, 3-(trifluoromethyl)benzyl 6-(heptyloxy)-2-(hydroxymethyl)-5-methylpyrimidine-4-carboxylate] | – | 5070 CCPM and 6403 CCPM and 6171 CCPM and 8628 CCPM and 8277 CCPM and 7942 CCPM | 5379 CCPM and 6351 CCPM and 6353 CCPM and 8453 CCPM and 7986 CCPM and 7710 CCPM | 5347 CCPM and 4876 CCPM and 6039 CCPM and 8146 CCPM and 8038 CCPM and 8545 CCPM | 4978 CCPM and 4910 CCPM and 4651 CCPM and 7817 CCPM and 7871 CCPM and 7636 CCPM | 5492 CCPM and 5042 CCPM and 4393 CCPM and 7145 CCPM and 7596 CCPM and 7314 CCPM | 4511 CCPM and 5233 CCPM and 4215 CCPM and 6957 CCPM and 7148 CCPM and 7222 CCPM
5 | 106.7 ± 5.0 % of control | – | COC(=O)c1nc(CO)nc(OCc2cccc(C(F)(F)F)c2)c1C [Compound 2g, Methyl 2-(hydroxymethyl)-5-methyl-6-[[3-(trifluoromethyl)benzyl]oxy]pyrimidine-4-carboxylate] | – | 5444 CCPM and 5572 CCPM and 6419 CCPM and 5626 CCPM and 5372 CCPM and 5082 CCPM | 5331 CCPM and 5641 CCPM and 6328 CCPM and 5502 CCPM and 5786 CCPM and 5467 CCPM | 5858 CCPM and 5969 CCPM and 5764 CCPM and 5341 CCPM and 5546 CCPM and 5465 CCPM | 6071 CCPM and 6111 CCPM and 6173 CCPM and 5469 CCPM and 6077 CCPM and 5316 CCPM | 5096 CCPM and 6099 CCPM and 5970 CCPM and 5477 CCPM and 5384 CCPM and 5474 CCPM | 5416 CCPM and 5047 CCPM and 5574 CCPM and 5225 CCPM and 5482 CCPM and 5411 CCPM
6 | 110.7 ± 5.5 % of control | – | CCCCC(CC)Oc1nc(CO)nc(C(=O)OC)c1C (centres unmarked) [Compound 2k, Methyl 6-(heptan-3-yloxy)-2-(hydroxymethyl)-5-methylpyrimidine-4-carboxylate] | – | 13386 CCPM and 11844 CCPM and 11381 CCPM and 5560 CCPM and 5090 CCPM and 5580 CCPM | 12313 CCPM and 12292 CCPM and 11097 CCPM and 5334 CCPM and 5340 CCPM and 5211 CCPM | 12488 CCPM and 11770 CCPM and 11977 CCPM and 5381 CCPM and 5013 CCPM and 5436 CCPM | 12602 CCPM and 12313 CCPM and 12064 CCPM and 5438 CCPM and 4595 CCPM and 5996 CCPM | 12386 CCPM and 11227 CCPM and 11279 CCPM and 6057 CCPM and 6588 CCPM and 6792 CCPM | 11742 CCPM and 11565 CCPM and 11279 CCPM and 5575 CCPM and 6135 CCPM and 5991 CCPM

Second part, the molecule before the results:

Row | Structure (SMILES) | Residual [^3H]PDBu binding to PKCα (% of control) (PKCα [2]) | Displacement of [^3H]PDBu from PKCα (in words) (PKCα [2]) | Ki (PKCα [1]) | Displacement assay raw data (CCPM) (PKCα [2]; 0,2 µM test substance) | Displacement assay raw data (CCPM) (PKCα [2]; 1 µM test substance) | Displacement assay raw data (CCPM) (PKCα [2]; 4 µM test substance) | Displacement assay raw data (CCPM) (PKCα [2]; 10 µM test substance) | Displacement assay raw data (CCPM) (PKCα [2]; 20 µM test substance) | Displacement assay raw data (CCPM) (PKCα [2]; 30 µM test substance)
7 | CC1=CC[C@H](C)C(C)(C)[C@@H]1/C=C/C(C)=C/CC[C@@]1(CO)[C@H](CCCO)/C(=C(/C)C=O)CC[C@]1(C)O [Iripallidal, iripallidal] | – | – | 75.6 nM | – | – | – | – | – | –
8 | C=C(C)[C@@]12O[C@@]3(c4ccccc4)O[C@@H]1[C@@H]1[C@@H]4O[C@]4(CO)[C@@H](O)[C@]4(O)C(=O)C(C)=C[C@H]4[C@@]1(O3)[C@H](C)[C@H]2OC(=O)/C=C/C=C/c1ccccc1 [Mezerein, mezerein] | – | – | 0.27 nM | – | – | – | – | – | –
9 | CC(C)C1C(=O)NC(CO)Cc2c[nH]c3cccc(c23)N1C (centres unmarked) [Indolactam-V, indolactam-V] | – | – | 11 nM | – | – | – | – | – | –
10 | O=C(OCc1cccc(C(F)(F)F)c1)c1cc(C(=O)OCc2cccc(C(F)(F)F)c2)nc(CO)n1 [Compound 1g, Bis[3-(trifluoromethyl)benzyl] 2-(hydroxymethyl)pyrimidine-4,6-dicarboxylate] | 111.8 ± 6.5 % of control | could not displace | – | 5983 CCPM and 11409 CCPM and 12180 CCPM and 12791 CCPM and 7834 CCPM and 6792 CCPM | 5197 CCPM and 12142 CCPM and 12212 CCPM and 11135 CCPM and 5159 CCPM and 5208 CCPM | 7023 CCPM and 11774 CCPM and 11597 CCPM and 12149 CCPM and 8091 CCPM and 7399 CCPM | 6399 CCPM and 11639 CCPM and 11927 CCPM and 11310 CCPM and 6008 CCPM and 6638 CCPM | 7300 CCPM and 11874 CCPM and 12244 CCPM and 12079 CCPM and 8018 CCPM and 7727 CCPM | 6005 CCPM and 11016 CCPM and 11803 CCPM and 12038 CCPM and 5730 CCPM and 6258 CCPM
11 | O=C(OCc1cccc(C(F)(F)F)c1)c1cc(CO)cc(C(=O)OCc2cccc(C(F)(F)F)c2)c1 [HMI-1a3, reference compound] | 54.8 ± 2.6 % of control | – | – | – | – | – | – | – | –
12 | CCCCCC(CC)OC(=O)c1cc(C(=O)OC(CC)CCCCC)nc(CO)n1 (centres unmarked) [Compound 1f, Di(octan-3-yl) 2-(hydroxymethyl)pyrimidine-4,6-dicarboxylate] | 88.3 ± 2.7 % of control | – | – | 8395 CCPM and 7761 CCPM and 8223 CCPM | 8430 CCPM and 8004 CCPM and 8035 CCPM | 8187 CCPM and 8110 CCPM and 8243 CCPM | 6268 CCPM and 7306 CCPM and 7650 CCPM | 7244 CCPM and 7065 CCPM and 7340 CCPM | 7174 CCPM and 7070 CCPM and 7370 CCPM
13 | CCCCCCCCOC(=O)c1cc(C(=O)OCCCCCCCC)nc(CO)n1 [Compound 1b, Dioctyl 2-(hydroxymethyl)pyrimidine-4,6-dicarboxylate] | 104.8 ± 5.3 % of control | – | – | 7480 CCPM and 1215 CCPM and 1126 CCPM and 1107 CCPM and 7956 CCPM and 7520 CCPM | 7638 CCPM and 1213 CCPM and 1392 CCPM and 1115 CCPM and 7562 CCPM and 7593 CCPM | 7531 CCPM and 1201 CCPM and 1408 CCPM and 1101 CCPM and 7673 CCPM and 7303 CCPM | 7793 CCPM and 1222 CCPM and 1214 CCPM and 1251 CCPM and 7474 CCPM and 6957 CCPM | 8435 CCPM and 1194 CCPM and 1172 CCPM and 1054 CCPM and 8891 CCPM and 9450 CCPM | 6677 CCPM and 1407 CCPM and 1081 CCPM and 1070 CCPM and 6691 CCPM and 6936 CCPM
14 | CCCCC(CC)OC(=O)c1cc(C(=O)OCC)nc(CO)n1 (centres unmarked) [Compound 1d, 4-ethyl 6-(heptan-3-yl) 2-(hydroxymethyl)pyrimidine-4,6-dicarboxylate] | 98.2 ± 1.6 % of control | – | – | 5785 CCPM and 11839 CCPM and 10949 CCPM and 11567 CCPM and 6093 CCPM and 6313 CCPM | 5593 CCPM and 11705 CCPM and 12203 CCPM and 11600 CCPM and 5961 CCPM | 5222 CCPM and 11573 CCPM and 11709 CCPM and 11091 CCPM and 5210 CCPM and 6475 CCPM | 5570 CCPM and 12001 CCPM and 12205 CCPM and 11408 CCPM and 5899 CCPM and 5461 CCPM | 5518 CCPM and 11664 CCPM and 11365 CCPM and 11482 CCPM and 5575 CCPM and 5277 CCPM | 5500 CCPM and 12337 CCPM and 11581 CCPM and 11144 CCPM and 5029 CCPM and 5100 CCPM
15 | CCCCCCCCCCc1ccc2c(c1)N[C@@H](C(C)C)C(=O)N[C@H](CO)C2 [9-Decyl-benzolactam-V8, 9-decyl-benzolactam-V8] | – | – | 3.8 nM | – | – | – | – | – | –
